Test results as given in patent US20220313651A1, “INHIBITORS OF ZIKA VIRUS INFECTION” (priority 2019, published 2022).
Like-named read-outs stand apart in the source and are kept apart here.

Experiments:
[1] = test system: ZIKV human strain PAN2016 (2016/Panama); experiment: Plaque reduction inhibition assay in Vero E6 cells, ZIKV PAN2016; format: cell-based, Zika virus (ZIKV)
Protocol: (§1) A plaque reduction inhibition assay was carried out to measure the inhibitory activity of Z-medicaments against infections of ZIKV and DENV. […] The compound-virus mixtures were then transferred to Vero E6 cells (10^5/well) and incubated at 37° C. for 1 h.

[2] = test system: ZIKV human strain R103451 (2015/Honduras); experiment: Plaque reduction inhibition assay in Vero E6 cells, ZIKV R103451; format: cell-based, Zika virus (ZIKV)
Protocol: as §1

[3] = test system: ZIKV human strain PRVABC59 (2015/Puerto Rico); experiment: Plaque reduction inhibition assay in Vero E6 cells, ZIKV PRVABC59; format: cell-based, Zika virus (ZIKV)
Protocol: as §1

[4] = target: ZIKV full-length E protein (Zika virus, UniProt Q32ZE1); experiment: ELISA binding to ZIKV full-length E protein
Protocol: (§2) Binding of compounds (NPs) to ZIKV full-length E (FIG. 3A), EDIII (FIG. 3B), and NS2B-NS3 (FIG. 3C) proteins, was detected by ELISA. The percent binding was reported in the presence or absence of serially diluted NPs using the formula (1-[E/EDIII-NP]/[E/EDIII])×100 (for E/EDIII binding) or (1-[NS2B-NS3-NP]/[NS2B-NS3])×100 (for NSEB-NS3 binding). […] The concentrations of ZIKV EDIII and mAbs were 1.5 and 0.5 μg/ml, respectively. […] The concentrations of substrate (Bz-Nle-Lys-Lys-Arg-AMC) and ZIKV NS2B-NS3 protein were 4 μM and 1 μg/ml, respectively. The percent inhibition of protease activity was calculated in the presence or absence of serially diluted compounds using the formula (1-[NS2B-NS3-substrate-NP]/[NS2B-NS3-substrate])×100. The IC50 values were calculated based on the percent inhibition. The data are expressed as mean±s.e.m. (n=4).
(§3) The data are expressed as mean±s.e.m. (n=4), and DMSO was used as negative control. Surface plasmon resonance (SPR) analysis of the binding between ST087010 and ZIKV EDIII (FIG. 6D) or NS2B-NS3 (FIG. 6E) protein was performed. Binding affinity was shown as KD (equilibrium dissociation constant).
(§4) The binding between the Z-medicament and ZIKV full-length E protein, EDIII protein (E residues 298-409 fused with a C-terminal human Fc), or NS2B-NS3 protease was carried out by ELISA. Briefly, ELISA plates were pre-coated with the proteins described above at 4° C. overnight, and blocked with 2% fat-free milk at 37° C. for 2 h. Serial dilutions of the Z-medicament or DMSO (control) were then added to the plates and incubated at 37° C. for 2 h. The plates were washed with PBS containing Tween-20 (PBST), and incubated at 37° C. for 1 h with ZIKV EDIII-specific human mAb ZKA64-LALA (0.5 μg/ml) (for binding to ZIKV full-length E and EDIII proteins), or mouse sera specific to ZIKV NS2B-NS3 (for binding to NS2B-NS3 protease). The plates were washed with PBST, and incubated with horseradish peroxidase (HRP)-conjugated anti-human IgG-Fab (1:3000) or anti-mouse IgG (1:3000) antibody at 37° C. for 1 h. The 3,3′,5,5′-tetramethylbenzidine (TMB) substrate was added to the plates, and the reaction was stopped by 1 N H2SO4. Absorbance at 450 nm (A450 value) was measured by ELISA microplate reader.
(§5) Briefly, ELISA plates were coated with each protein (1 μg/ml) at 4° C. overnight, and were then incubated with blocking buffer containing 2% fat-free milk in PBST at 37° C. for 2 h. The above compounds, or DMSO control, at serial dilutions were added to the plates, and incubated at 37° C. for 2 h. After three washes using PBST, the plates were incubated at 37° C. for 2 h with ZIKV EDIII-specific human mAb ZKA64-LALA (0.5 μg/ml) (for binding to ZIKV full-length E or EDIII protein), or ZIKV NS2B-NS3-specific mouse sera (for binding to NS2B-NS3 protein). After further washes, the plates were incubated with HRP-conjugated anti-human IgG-Fab (1:3,000) or anti-mouse IgG (1:3,000) antibody at 37° C. for 1 h. The plates were incubated with substrate TMB, and the reaction was stopped by addition of 1 N H2SO4. Absorbance at 450 nm (A450 values) was measured by an ELISA microplate reader. EC50 values were calculated.

[5] = target: T1, ZIKV EDIII protein (E residues 298-409) (Zika virus, UniProt Q32ZE1, D679E/I627V/V603I/V629A); format: binding; settings: ELISA
T1 construct: human Fc (C)
Protocol: as §2, §3, §4
Briefly, ELISA plates were coated with each protein (1 μg/ml) at 4° C. overnight, and were then incubated with blocking buffer containing 2% fat-free milk in PBST at 37° C. for 2 h. The above compounds, or DMSO control, at serial dilutions were added to the plates, and incubated at 37° C. for 2 h. […] Absorbance at 450 nm (A450 values) was measured by an ELISA microplate reader. EC50 values were calculated.

[6] = target: T2, ZIKV NS2B-NS3 protease (Zika virus, UniProt Q32ZE1); experiment: ELISA binding to ZIKV NS2B-NS3 protease
T2 construct: 49-97) and NS2 protein (residues 1-185) through a covalent; made in house; host or cells: E. coli
Protocol: as §2, §3, §4
as §5, with “h.” for “h. The plates were incubated with substrate TMB, and the reaction was stopped by addition of 1 N H2SO4. Absorbance at 450 nm (A450 values) was measured by an ELISA microplate reader. EC50 values were calculated.”

[7] = Zika virus, Vero C1008, Vero E6 cells, Table 1, read-out: IC50 against ZIKV strain PAN2016
[8] = Zika virus, Vero C1008, Vero E6 cells, Table 1, read-out: IC50 against ZIKV strain R103451

| SMILES | IC50 [1, 7] [µM] | IC50 [2, 8] [µM] | Binding to ZIKV full-length E protein (in words) [4] | Binding to ZIKV EDIII protein (in words) [5] | Binding to ZIKV NS2B-NS3 protein (in words) [6] | also measured |
| --- | --- | --- | --- | --- | --- | --- |
| Cc1cc2c(C(C)C)c(O)c(O)c(C=O)c2c(O)c1-c1c(C)cc2c(C(C)C)c(O)c(O)c(C=O)c2c1O [Gossypol, gossypol] | 3.48 | 2.28 ± 0.1 | – | – | – | IC50 ([1]; Zika virus, Vero C1008, read-out: ZIKV strains IC50, PAN2016): 3.78 ± 0.3 µM; IC50 ([2]; Zika virus, Vero C1008, read-out: ZIKV strains IC50, R103451): 3.12 ± 0.38 µM; IC50 ([3]; Zika virus, Vero C1008, read-out: ZIKV strains IC50, PRVABC59): 4.55 ± 0.07 µM |
| C[C@H]1[C@H]2CC[C@H]3[C@@H]4CC=C5C[C@@H](N(C)C)CC[C@]5(C)[C@H]4CC[C@]23CN1C [Conessine, conessine] | – | – | bound to no ZIKV proteins tested | bound to no ZIKV proteins tested | bound to no ZIKV proteins tested | – |
| C[C@@H]1CC[C@@]2(OC1)O[C@H]1[C@@H](O)[C@H]3[C@@H]4CC[C@H]5C[C@@H](O[C@@H]6O[C@H](CO)[C@H](O[C@@H]7O[C@H](CO)[C@@H](O)[C@H](O[C@@H]8OC[C@@H](O)[C@H](O)[C@H]8O)[C@H]7O[C@@H]7O[C@H](CO)[C@H](O)[C@H](O[C@@H]8O[C@H](CO)[C@@H](O)[C@H](O)[C@H]8O)[C@H]7O)[C@H](O)[C@H]6O)[C@H](O)C[C@]5(C)[C@H]4CC[C@]3(C)[C@H]1[C@@H]2C [Digitonin, digitonin] | 4.31 | 4.3 ± 0.43 | bound to no ZIKV proteins tested | bound to no ZIKV proteins tested | bound to no ZIKV proteins tested | IC50 ([3]; Zika virus, Vero C1008, Vero E6 cells, Table 1, read-out: IC50 against ZIKV strain PRVABC59): 3.76 ± 1.12 µM |
| COc1cc(/C=C/C(=O)CC(=O)/C=C/c2ccc(O)c(OC)c2)ccc1O [Curcumin, curcumin] | – | – | much lower binding affinity | – | much lower binding affinity | – |
| Cc1cc2c(C(C)C)c(O)c(O)c(/C=N/n3c(=O)[nH][nH]c3=O)c2c(O)c1-c1c(C)cc2c(C(C)C)c(O)c(O)c(/C=N/n3c(=O)[nH][nH]c3=O)c2c1O [ST087010] | – | – | – | – | – | IC50 ([1]; Vero E6 cells, Table 7, gossypol derivatives, read-out: ZIKV strains IC50, PAN2016): 3.17 ± 0.18 µM; IC50 ([2]; Vero E6 cells, Table 7, gossypol derivatives, read-out: ZIKV strains IC50, R103451): 3.6 ± 0.07 µM; IC50 ([3]; Vero E6 cells, Table 7, gossypol derivatives, read-out: ZIKV strains IC50, PRVABC59): 2.36 ± 0.05 µM; EC50 ([4]; detected with mAb ZKA64-LALA): 6.47 µM; EC50 ([5]; detected with mAb ZKA64-LALA, read-out: EC50, binding to ZIKV EDIII protein): 6.13 µM; EC50 ([6]; detected with NS2B-NS3-immunized mouse sera, read-out: EC50, binding to ZIKV NS2B-NS3 protein): 21.9 µM |
